According to patent US7018989B2, “Chemical compounds” (University College Cardiff Consultants, LTD, priority 1995, dated 2006):
Read-outs that look alike come from different tables or passages of the source.

Key:
III-B strain of HIV-1 = assay: microbe, parasite or virus in culture; assay type: cell-based
Procedure: (§1) C8166 cells. Cells were grown in RPMI 1640 with 10% calf serum. 4×10^4 cells per microtiter plate well were mixed with 5-fold dilutions of compound prior to addition of 10 CCID50 units of III-B strain of HIV-1 and incubated for 5–7 days (Betbeder et al. Antiviral Chem. Chemother. 1, 241–247, 1990). Formation of syncytia was examined from 2 days post-infection. Culture fluid was collected at 5–7 days and gp120 antigen production measured by ELISA (Mahmood and Hay, J. Immunol. Meth., 151, 9–13, 1992). […] Cell viability of infected and uninfected cells were assessed by the MTT-Formazen method (Pauwels et al. J. Virol. Meth. 20, 309–321, 1988).
(§2) Each assay was carried out in duplicate, on at least two separate occasions, and data quoted are the average of each separate assay.

HIV RT = HIV RT (Human immunodeficiency virus type 1 group M subtype B, UniProt P03366); assay: Inhibition of HIV reverse transcriptase; assay type: biochemical; settings: Table 4
HIV-1 [1] = assay: microbe, parasite or virus in culture
In short: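 5×10^5 cells/mL, 100 CCID50/mL virus, + compound dilutions. CEM: giant cells scored microscopically, day 4. MT-4: viability by trypan blue, day 5.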

HIV-2 [2] = assay: Inhibition of HIV-2 in CEM/TK- cells; assay type: cell-based
In short: (§3)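 Trypan blue staining of MT-4 cultures on day 5 gave viable cell numbers; CEM cultures were checked microscopically for giant cells on day 4. Both cell types were infected at 100 CCID50/mL (5×10^5 cells/mL) and incubated with compound dilutions.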

HIV1 d4T-Resistant = assay: HIV1 in HeLa cells, d4T-resistant strain; assay type: cell-based, HIV-1; settings: read-out: EC50 HeLa HIV1 d4T-Resistant
[3] = tested on: HIV-1 (GB8 or IIIB strains); assay: Anti-HIV-1 activity in JM cells; assay type: cell-based; settings: Human immunodeficiency virus 1, IIIB; HIV1 in JM; Table 2
Procedure: as §1
JM cells JM cells, which are relatively resistant to the antiviral effects of AZT and a number of its derivatives, were infected with HIV-1 strains and the antiviral and toxic effects of compounds assessed as for C8166 cells. Both GB8 or IIIB strains of HIV1 were used, with no delectable differences in the end-points noted.
as §2

HIV1 d4T-Sensitive = assay: HIV1 in HeLa cells, d4T-sensitive strain; assay type: cell-based, HIV-1; settings: Table 4
[4] = Toxicity in C8166 cells (MTT-Formazen); assay type: cell-based; settings: human, Table 3
Procedure: as §1, §2

[5] = tested on: Moloney Sarcoma Virus [MSV]; assay: MSV-induced tumour formation and survival in NMRI mice; assay type: in vivo; settings: MSV infected mice
Procedure: Drug doses are 50[low ] or 200 [high] mg/kg/day given i.p. for 4 days starting 1 hour before MSV inoculation.
In Vivo Testing Inhibitory Effects of Test Compounds on the Initiation of MSV-Induced Tumour Formation in NRMI Mice and on the Survival of MSV Innoculated NMRI Mice.
Mice infected with Moloney Sarcoma Virus [MSV] were treated daily with either placebo, or d4T [at one of two doses] or with compound 324 at one of the same [equi-molar] doses.
Two- to three-day old NMRI mice (weighing—2 gram) were innoculated subcutaneously (s.c.) in the left hind leg with 50 μl MSV (100 foci forming units, as measured by in vitro determination of the virus-induced transformation of murine C3H embryo fibroblast cells). At 4 to 5 days post-infection, tumours develop and rapidly increase in volume upon further aging of the mice. Within 10 to 12 days post-infection, mice (then weighing—5 to 6 gram) die from the viral infection. Drug treatment started 1 hour prior to infection of the virus, and further compound administration was given daily i.p. for an additional 3 days. The mean day of tumour initiation (±standard deviation) and the mean day of survival of the mice (±standard deviation) was calculated and statistical significance of the average delay of tumour formation and the mean day of survival in the treated groups versus the untreated (control) group was assessed by two-tailed student's t-test.

HIV-2 [6] = assay: Inhibition of HIV-2 in CEM cells (giant cell formation); assay type: cell-based
In short: as §3

HIV-2 [7] = assay: Inhibition of HIV-2 in MT4 cells; assay type: cell-based
Procedure: (§4) Cells were infected with HIV-1 as previously described [Balzarini et al. AIDS (1991), 5, 21–28]. Briefly, 5×10^5 cells per milliliter were infected with HIV-1 or HIV-2 at 100 CCID50 (50% cell culture infective dose) per milliliter of cell suspension. Then 100 μL of the infected cell suspension was transferred to microtiter plate wells and mixed with 100 μL of the appropriate dilutions of the test compounds. After 4 days giant cell formation was recorded microscopically in the HIV-infected cell cultures [CEM], and after 5 days the number of viable cells was determined by trypan blue staining of the HIV-infected cell cultures [MT4].
(§5) The data columns are, in order: • HIV1 MT4: EC50 in μM for inhibition of HIV-1 in MT4 cells. • HIV2 MT4: EC50 in μM for inhibition of HIV-2 in MT4 cells. • CC50 MT4: CC50 in μM for toxicity to MT-4 cells. • HIV1 CEM: EC50 in μM for inhibition of HIV-1 in CEM cells. • HIV2 CEM: EC50 in μM for inhibition of HIV-2 in CEM cells. • HIV2 CEM-TK-: EC50 in μM for inhibition of HIV-2 in CEM/TK^− cells. • CC50 CEM: CC50 in μM for toxicity to CEM cells. • EC50 MSV: EC50 in μM for inhibition of MSV • MCC MSV: Minimum cytotoxic concentration in MSV assay

Toxicity to CEM cells = assay type: cell-based, human; settings: human, mock-infected CEM cells; Table 6; mean of two or more repeat experiments
hog liver esterase = assay: Incubation with hog liver esterase; assay type: in vitro ADME; settings: 1 mM, 37° C., Tris-HCl buffer containing 5 mM MgCl2
Procedure: This metabolites co-eluted with the predominant metabolite (X) that was found in the cell extracts after incubation of the intact cells with [^3H] 324. metabolite X corresponds to a compound of formula (10), wherein Y is oxygen, X^1 is NH, X^2 is oxygen, B is thymine, R^1 is Me, R^2 is hydrogen.

Toxicity to MT-4 cells = assay type: cell-based, human; settings: human, mock-infected MT-4 cells; Table 6; mean of two or more repeat experiments; read-out: CC50 MT4: CC50 for toxicity to MT-4 cells
Procedure: as §4, §5

HIV-1 [8] = assay: Inhibition of HIV-1 in MT4 cells; assay type: cell-based; settings: Table 6, mean of two or more repeat experiments, read-out: HIV1 MT4: EC50 for inhibition of HIV-1 in MT4 cells
Procedure: as §4, §5

CEM cells = assay: Toxicity to CEM cells; assay type: cell-based, human; settings: Table 6; mean of two or more repeat experiments
C8166 cells = assay: Toxicity in C8166 cells (MTT-Formazen); assay type: cell-based; settings: Table 3
Procedure: as §1, §2

MT-4 cells = assay: Toxicity to MT-4 cells; assay type: cell-based, human; settings: Table 6; mean of two or more repeat experiments; read-out: CC50 MT4: CC50 for toxicity to MT-4 cells
Procedure: as §4, §5

[9] = Human immunodeficiency virus 1, C8166, Table 4, read-out: EC50 8166 HIV1
[10] = Human immunodeficiency virus 1, CCRF-CEM, read-out: EC50 CEM HIV1
[11] = Human immunodeficiency virus 1, HIV1 in C8166 cells, Table 3, read-out: Activity EC50
[12] = Human immunodeficiency virus 1, HeLa
[13] = 50 [low] or 200 [high] mg/kg/day i.p. for 4 days
[14] = Human immunodeficiency virus 2, CEM-TK(-), read-out: EC50 CEM TK^−
[15] = Human immunodeficiency virus 2, CEM-TK(-), read-out: EC50 CEM TK− HIV2

## Cc1cn([C@H]2C[C@H](N=[N+]=[N-])[C@@H](CO)O2)c(=O)[nH]c1=O [AZT, 3′-azido-3′-deoxythymidine, reference compound]
III-B strain of HIV-1; [9]
  EC50: 0.008 µM
HIV RT
  EC50 HIV RT: Inactive
HIV-1 [1]; [10]
  EC50: 0.003 µM
HIV-2 [2]; Human immunodeficiency virus 2, CEM-TK(-), Table 4, read-out: EC50 CEM TK− HIV2
  EC50: > 100 µM

## Cc1cn([C@H]2C=C[C@@H](CO)O2)c(=O)[nH]c1=O [d4T, 2′,3′-dideoxy-2′,3′-didehydrothymidine, reference compound]
III-B strain of HIV-1
  Selectivity CC50/EC50 × 10^3: 0.6 × 10^3
III-B strain of HIV-1; [9]
  EC50: 0.08 µM
III-B strain of HIV-1; Human immunodeficiency virus 1, HIV1 in C8166, Table 2, read-out: EC50 C8166
  EC50: 0.08 µM
III-B strain of HIV-1; [11]
  EC50: 0.08 µM
HIV1 d4T-Resistant; [12]
  EC50: 3.38 µM
[3]
  EC50: 0.8 µM
HIV1 d4T-Sensitive; [12]
  EC50: 0.86 µM
HIV RT
  EC50 HIV RT: Inactive
[4]
  CC50: 50 µM
[5]; [13]
  delay in death: failed to give any detectable delay
  delay in tumour appearance: failed to give any detectable delay
HIV-1 [1]; [10]
  EC50: 0.5 µM
HIV-2 [6]; [14]
  EC50: 1.2 µM
HIV-2 [2]; [14]
  EC50: > 100 µM
HIV-2 [2]; [15]
  EC50: > 100 µM

## COC(=O)C(C)NP(=O)(OCC1C=CC(n2cc(C)c(=O)[nH]c2=O)O1)Oc1ccccc1 (stereo not drawn) [Compound 324, 2′,3′-dideoxy-2′,3′-didehydrothymidine 5′-(phenyl N-methoxyalaninyl) phosphoramidate]
III-B strain of HIV-1; HIV1 in C8166 cells, Table 3
  Selectivity CC50/EC50 × 10^3: 46.9 × 10^3
III-B strain of HIV-1; [9]
  EC50: 0.0032 µM
III-B strain of HIV-1; [11]
  EC50: 0.0032 µM
HIV-2 [7]; Human immunodeficiency virus 2, MT4, read-out: HIV2 MT4: EC50 for inhibition of HIV-2 in MT4 cells
  EC50: 0.053 µM
Toxicity to CEM cells
  CC50: 100 µM
Hog liver esterase
  metabolite formation with hog liver esterase: time-dependent formation of a metabolite was observed
HIV RT
  EC50: 50 µM
[4]
  CC50: 150 µM
[5]; high-dose (200 mg/kg/day i.p. for 4 days)
  effect on tumour appearance: significant effect
[5]; low dose (50 mg/kg/day i.p. for 4 days)
  effect on tumour appearance (first disease parameter): an effect
HIV-1 [1]; [10]
  EC50: 0.18 µM
HIV-1 [1]; Human immunodeficiency virus 1, CCRF-CEM, read-out: HIV1 CEM: EC50 for inhibition of HIV-1 in CEM cells
  EC50: 0.075 µM
HIV-2 [6]; Human immunodeficiency virus 2, CCRF-CEM, read-out: HIV2 CEM: EC50 for inhibition of HIV-2 in CEM cells
  EC50: 0.075 µM
Toxicity to MT-4 cells
  CC50 at 5 days: > 100 µM
HIV-2 [2]; [15]
  EC50: 0.08 µM
HIV-2 [2]; Human immunodeficiency virus 2, CEM-TK(-), read-out: HIV2 CEM-TK-: EC50 for inhibition of HIV-2 in CEM/TK^− cells
  EC50: 0.075 µM
HIV-1 [8]; Human immunodeficiency virus 1, MT4
  EC50: 0.081 µM

## COC(=O)C(C)NP(=O)(OC[C@@H]1C=C[C@H](n2cc(C)c(=O)[nH]c2=O)O1)Oc1cc(Cl)cc(Cl)c1 (stereo partly drawn) [Compound 546, 2′,3′-dideoxy-2′,3′-didehydrothymidine 5′-(3,5-dichlorophenylmethoxyalaninyl) phosphoramidate]
III-B strain of HIV-1
  Selectivity CC50/EC50 × 10^3: 100 × 10^3
III-B strain of HIV-1; HIV1 in C8166 cells, Table 3, read-out: Activity EC50
  EC50: 0.001 µM
III-B strain of HIV-1; Table 4, read-out: EC50 8166 HIV1
  EC50: 0.001 µM
HIV-2 [7]; Table 6, mean of two or more repeat experiments, read-out: HIV2 MT4: EC50 for inhibition of HIV-2 in MT4 cells
  EC50: 0.12 µM
CEM cells
  CC50: 26.9 µM
HIV1 d4T-Resistant; Table 4
  EC50: 0.04 µM
HIV1 d4T-Sensitive
  EC50: 0.03 µM
C8166 cells
  CC50: 100 µM
HIV-1 [1]; read-out: EC50 CEM HIV1, Table 4
  EC50: 0.06 µM
HIV-1 [1]; read-out: HIV1 CEM: EC50 for inhibition of HIV-1 in CEM cells, Table 6, mean of two or more repeat experiments
  EC50: 0.12 µM
HIV-2 [6]; Table 6, mean of two or more repeat experiments, read-out: HIV2 CEM: EC50 for inhibition of HIV-2 in CEM cells
  EC50: 0.15 µM
MT-4 cells
  CC50: 10.5 µM
HIV-2 [2]; Table 4, read-out: EC50 CEM TK− HIV2
  EC50: 0.06 µM
HIV-2 [2]; Table 6, mean of two or more repeat experiments, read-out: HIV2 CEM-TK-: EC50 for inhibition of HIV-2 in CEM/TK^− cells
  EC50: 0.12 µM
HIV-1 [8]
  EC50: 0.037 µM
